Assay results from US6057294A, “Peptide” (Northern Sydney Area Health Service of Pacific Highway, priority 1995, dated 2000).
Ends that are not written are not given here.

What was measured:
[1] = system: 2B4.11 T-cell activation (IL-2 production); assay: Antigen presentation assay (IL-2 production by 2B4.11 T-cells, CTLL proliferation readout); format: cell-based; settings: 100 μM
Source text: An antigen presentation assay (described below) examined the ability of a number of peptides to inhibit T-cell activation following antigen recognition, by measuring the product of T-cell activation, Interleukin-2 (IL-2).
Material. The following cell lines were used: 2B4.11, a T-cell hybridoma that expresses a complete antigen receptor on the cell surface (Samelson et al., 1983) and produces IL-2 following antigen recognition (cytochrome c). Interleukin-2 dependent T-cell line (CTLL) for conventional biological IL-2 assays; and the B-cell hybridoma cell line LK 35.2 (LK, I-E^k bearing; Kappler et al., 1982) which acts as the antigen presenting cell. The hybridomas were grown in TCM. Cytochrome c (Sigma, USA) was added in the media to give a final concentration of 50 μM in the antigen presenting assay.
Peptides examined included: core peptide, seven other control peptides from a variety of sources having an equivalent length to core peptide and peptides A, B, C, D, E and F. The final concentration of the peptides in the antigen presentation assay was examined at several levels ranging from 10 μM to 100 μM.
Method. […] Supernatants were recovered and IL-2 content determined by CTLL proliferation. […] In addition to measuring ^3 H-thymidine incorporation, IL-2 measurements (IU/ml) were also determined. […]

[2] = system: adjuvant induced arthritis in rats; assay: Adjuvant induced arthritis in rats; format: in vivo, rat; settings: for EFFECT: peptides 7 mg/rat, CS 50 mg/kg, DXM 2 mg/kg, given with MTB adjuvant; for tail thickness: n = 5
[3] = system: diabetes in NOD/Lt (F) mice; assay: Cyclophosphamide induced diabetes in NOD/Lt (F) mice; format: in vivo, mouse; settings: for PERCENTAGE OF MICE DEVELOPING DIABETES: 250 μg s.c. on Day -1, 0 and 1, n = 16
Method: In yet another model of T-cell mediated disease the effects of subcutaneously injected core peptide on the induction of diabetes in NOD/Lt (F) mice was tested "blind" by an independent experimenter (Prof L Harrison, WEHI, Melbourne). NOD/Lt(F) mice 10 weeks old at experimental Day 0. This is a high-incidencestrain commonly used as an animal model for diabetes. Core peptide dissolved in squalane at a stock concentration of 3.33 mg/ml. Ovalbumin used as a control was suspended in squalane at a stock concentration of 3.33 mg/ml. Peptide and ovalbumin were "solubilised" just prior to injection, with vortexing. A total of 250 μg (75 μl) was injected subcutaneously on the right flank on Day -1, 0 and 1. Mice were given intraperitoneal cyclophosphamide in water at 300 mg/kg on Day 0. Blood glucose measurements were taken on Day 0, 10, 14 and 21. There were 16 mice in the treatment group and 16 in the ovalbumin control group.

[4] = system: TCR on 2B4.11 cells; assay: TCR assembly and cell surface expression on T-cells by flow cytometry; format: cell-based
Method: The T-cell hybridoma 2B4.11 which expresses a complete TCR on the cell surface was used as a positive control to assess the effects of peptides on TCR expression. The cells were grown in TCM. The β-deficient variant 21.2.2 and the β- and .zeta.-deficient cell line 3.12.29, derived by repetitive subcloning of 2B4.11 cells (Sussman et al., 1988) and lacking TCR expression were used as negative controls.
Peptides tested included core peptide, lipopeptides and a peptide from tumor necrosis factor receptor termed 558 (used as a negative control). […]
The following antibodies were used for immuno-precipitation and flow cytometry analysis: Mouse IgG2a monoclonal antibody (MAb) against TCR-α chain of the T-cell hybridoma 2B4 (A2B4-2, Samelson et al., 1983), MAb against 2B4.11 TCR-β chain (K)25), hamster IgG anti-CD3-ε MAb (145-2C11 [2C11], Leo et al., 1987), rabbit anti-CD3-ε polyclonal antiserum raised against purified mouse CD3-ε (127, Minami et al., 1987), anti-CD3-δ polyclonal antibody (R9) raised in goat immunized with a COOH-terminal peptide of the mouse CD3-δ chain (Samelson et al., 1986).
FACS analysis: 1×10^6 (2B4.11, 21.2.2) cells were incubated with a number of separate peptides and lipopeptides in a final concentration of 10 μM overnight. The cells were then wvashed with PBS and incubated with 50 μl primary antibody (A2B4 or 2C11) for 30 mins at 4° C. […]

[5] = system: experimental allergic neuritis in Lewis rats; assay: Experimental allergic neuritis (EAN); format: in vivo, rat; settings: peptide added to immunisation emulsion at 70 mg/ml

## CCCCCCCCCCCCCCCC(=O)O [Palmitic acid, reference compound]
[1]
  effect on IL-2 production: did not affect IL-2 production

## C[C@@H]1C[C@H]2[C@@H]3CCC4=CC(=O)C=C[C@]4(C)[C@@]3(F)[C@@H](O)C[C@]2(C)[C@@]1(O)C(=O)CO [DXM, dexamethasone, reference compound]
[2]; 2 mg/kg
  onset of arthritis delayed by: 3 to 4 days
[2]
  EFFECT: No effect

## Ovalbumin: Ovalbumin used as a control, suspended in squalane [reference compound]
[3]; DAY 0
  PERCENTAGE OF MICE DEVELOPING DIABETES: 0%
[3]; DAY 10
  PERCENTAGE OF MICE DEVELOPING DIABETES: 0%
[3]; DAY 14
  PERCENTAGE OF MICE DEVELOPING DIABETES: 42%
[3]; DAY 21
  PERCENTAGE OF MICE DEVELOPING DIABETES: 65%

## GLRILLLKV [core peptide]
[1]
  reduction in IL-2 production compared to control: 15%-30%
[2]; 1.7 mg
  EFFECT OF PEPTIDE: No effect
[2]; 3.5 mg
  EFFECT OF PEPTIDE: Protective
[2]; 7 mg
  EFFECT OF PEPTIDE: Protective
[2]; DAY 5, MTB + peptide
  tail thickness: 7.62 mm
[2]; DAY 10, MTB + peptide
  tail thickness: 8.24 mm
[2]; DAY 15, MTB + peptide
  tail thickness: 8.76 mm
[2]; DAY 20, MTB + peptide
  tail thickness: 8.96 mm
[2]; DAY 25, MTB + peptide
  tail thickness: 9.10 mm
[2]; compared with MTB alone
  ulceration and inflammation at the site of injection: not present
[2]; comparison among peptides
  effect on adjuvant arthritis: Best results
[2]; first experiment, 3 rats per group, 0.1 ml suspension in adjuvant, after 18 days
  animals with no evidence of arthritis: 2/3
[2]
  EFFECT: Protective
[2]; rat, in vivo
  difference in tail measurements versus saline injected rats: not statistically significant
[3]; DAY 0
  PERCENTAGE OF MICE DEVELOPING DIABETES: 0%
[3]; DAY 10
  PERCENTAGE OF MICE DEVELOPING DIABETES: 0%
[3]; DAY 14
  PERCENTAGE OF MICE DEVELOPING DIABETES: 5%
[3]; DAY 21
  PERCENTAGE OF MICE DEVELOPING DIABETES: 12%
[3]; mouse, in vivo
  effect on the induction of autoimmune beta cell destruction (diabetes): protective effect
[4]; 10 μM, overnight, 2B4.11 cells
  cell surface expression of TCR: did not alter the cell surface expression
[4]; 100 μM, incubation 1-10 days
  T-cell surface antigen receptor expression: no change in T-cell surface antigen receptor expression
[5]
  induction and clinical severity of EAN: delayed induction and clinical severity of disease
